What was measured:
T-47D = assay: NCI in vitro cancer screen, Breast Cancer; assay type: cell-based, human
KM12 = assay: NCI in vitro cancer screen, Colon Cancer; assay type: cell-based, human; details: KM12
UACC-62 = assay: NCI in vitro cancer screen, Melanoma; assay type: cell-based, human; details: UACC-62
786-0 = assay: NCI in vitro cancer screen, Renal Cancer; assay type: cell-based, human; details: 786-0
RXF-393 = assay: NCI in vitro cancer screen, Renal Cancer; assay type: cell-based, human; details: Homo sapiens, RXF-393
SW-620 = assay: NCI in vitro cancer screen, Colon Cancer; assay type: cell-based, human; details: SW-620
SF-539 = assay: NCI in vitro cancer screen, CNS Cancer; assay type: cell-based; details: SF-539
SF-268 = assay: NCI in vitro cancer screen, CNS Cancer; assay type: cell-based, human; details: SF-268
SK-MEL-5 = assay: NCI in vitro cancer screen, Melanoma; assay type: cell-based, human; details: SK-MEL-5
HOP-62 = assay: NCI in vitro cancer screen, Non-Small Cell Lung Cancer; assay type: cell-based, human; details: HOP-62
HL-60 (TB) = assay: NCI in vitro cancer screen, Leukemia; assay type: cell-based, human; details: HL-60 (TB)
SF-295 = assay: NCI in vitro cancer screen, CNS Cancer; assay type: cell-based, human; details: SF-295
NCI-H522 = assay: NCI in vitro cancer screen, Non-Small Cell Lung Cancer; assay type: cell-based, human; details: Homo sapiens, NCI-H522
SK-OV-3 = assay: NCI in vitro cancer screen, Ovarian Cancer; assay type: cell-based, human; details: SK-OV-3
NCI-H226 = assay: NCI in vitro cancer screen, Non-Small Cell Lung Cancer; assay type: cell-based, human; details: NCI-H226
SNB-75 = assay: NCI in vitro cancer screen, CNS Cancer; assay type: cell-based, human; details: SNB-75
TK-10 = assay: NCI in vitro cancer screen, Renal Cancer; assay type: cell-based, human; details: TK-10
PC-3 = assay: NCI in vitro cancer screen, Prostate Cancer; assay type: cell-based, human; details: PC-3
OVCAR-5 = assay: NCI in vitro cancer screen, Ovarian Cancer; assay type: cell-based, human; details: OVCAR-5
LOX IMVI = assay: NCI in vitro cancer screen, Melanoma; assay type: cell-based, human
SN12C = assay: NCI in vitro cancer screen, Renal Cancer; assay type: cell-based, human
A498 = assay: NCI in vitro cancer screen, Renal Cancer; assay type: cell-based, human; details: A498
K-562 = assay: NCI in vitro cancer screen, Leukemia; assay type: cell-based, human; details: K-562
HS 578T = assay: NCI in vitro cancer screen, Breast Cancer; assay type: cell-based, human; details: Homo sapiens
MOLT-4 = assay: NCI in vitro cancer screen, Leukemia; assay type: cell-based, human; details: MOLT-4
HOP-92 = assay: NCI in vitro cancer screen, Non-Small Cell Lung Cancer; assay type: cell-based, human; details: HOP-92
IGROV1 = assay: NCI in vitro cancer screen, Ovarian Cancer; assay type: cell-based, human; details: IGROV1
OVCAR-8 = assay: NCI in vitro cancer screen, Ovarian Cancer; assay type: cell-based, human; details: OVCAR-8
OVCAR-3 = assay: NCI in vitro cancer screen, Ovarian Cancer; assay type: cell-based, human; details: Homo sapiens, OVCAR-3
A549/ATCC = assay: NCI in vitro cancer screen, Non-Small Cell Lung Cancer; assay type: cell-based, human
MDA-MB-435 = assay: NCI in vitro cancer screen, Melanoma; assay type: cell-based, human; details: MDA-MB-435
[1] = Homo sapiens, read-out: LC50 (the source's name)
[2] = read-out: LC50 (the source's name)

Question: `COc1cc(/C=C/c2cc(O)cc(OC)c2CC=C(C)C)ccc1O` [USYDS1, (E)-2-(3-methyl-2-buten-1-yl)-4′,5-dihydroxy-3,3′-dimethoxystilbene] was tested. Which TGI (T-47D) did it give?
Answer: Its TGI is 19.8 µM.

Question: And the GI50 (T-47D; Homo sapiens, T47D)?
Answer: Its GI50 is 0.72 µM.

Question: What about the CC50 (T-47D; Homo sapiens, T47D, read-out: LC50 (the source's name)) of the same compound?
Answer: Its CC50 is 67.4 µM.

Question: And the GI50 (KM12; Homo sapiens)?
Answer: Its GI50 is 0.32 µM.

Question: And the CC50 (KM12; [1])?
Answer: Its CC50 is 46.7 µM.

Question: What about the TGI (KM12) of the same compound?
Answer: Its TGI is 13.9 µM.

Question: What about the GI50 (UACC-62; Homo sapiens) of the same compound?
Answer: The GI50 was 1.62 µM.

Question: What about the CC50 (UACC-62; [1]) of the same compound?
Answer: Its CC50 is 46.6 µM.

Question: What about the TGI (UACC-62) of the same compound?
Answer: Its TGI is 18.3 µM.

Question: And the TGI (786-0)?
Answer: The TGI was 14.0 µM.

Question: And the GI50 (786-0; Homo sapiens)?
Answer: The GI50 was 0.48 µM.

Question: And the LC50 (50% net cell kill) (786-0; Homo sapiens)?
Answer: Its LC50 (50% net cell kill) is > 100 µM.

Question: What about the GI50 (RXF-393) of the same compound?
Answer: The GI50 was 0.03 µM.

Question: What about the CC50 (RXF-393; [2]) of the same compound?
Answer: Its CC50 is 39.1 µM.

Question: What about the GI50 (SW-620; Homo sapiens) of the same compound?
Answer: The GI50 was 0.04 µM.

Question: What about the CC50 (SW-620; [1]) of the same compound?
Answer: The CC50 was 44.3 µM.

Question: And the TGI (SW-620)?
Answer: The TGI was 15.1 µM.

Question: And the GI50 (SF-539; Homo sapiens)?
Answer: The GI50 was 0.04 µM.

Question: And the CC50 (SF-539; [1])?
Answer: Its CC50 is 48.6 µM.

Question: What about the TGI (SF-539) of the same compound?
Answer: Its TGI is 14.4 µM.

Question: And the GI50 (SF-268; Homo sapiens)?
Answer: The GI50 was 0.25 µM.

Question: What about the CC50 (SF-268; [1]) of the same compound?
Answer: Its CC50 is 50.2 µM.

Question: And the TGI (SF-268)?
Answer: The TGI was 14.1 µM.

Question: And the GI50 (SK-MEL-5; Homo sapiens)?
Answer: Its GI50 is 0.05 µM.

Question: What about the CC50 (SK-MEL-5; [1]) of the same compound?
Answer: Its CC50 is 5.99 µM.

Question: And the TGI (SK-MEL-5)?
Answer: Its TGI is 0.75 µM.

Question: What about the TGI (HOP-62) of the same compound?
Answer: The TGI was 16.0 µM.

Question: And the GI50 (HOP-62; Homo sapiens)?
Answer: The GI50 was 0.44 µM.

Question: And the CC50 (HOP-62; [1])?
Answer: Its CC50 is 42.2 µM.

Question: What about the TGI (HL-60 (TB)) of the same compound?
Answer: The TGI was 0.06 µM.

Question: And the GI50 (HL-60 (TB); Homo sapiens)?
Answer: Its GI50 is 0.02 µM.

Question: What about the CC50 (HL-60 (TB); [1]) of the same compound?
Answer: Its CC50 is 68.9 µM.

Question: And the GI50 (SF-295; Homo sapiens)?
Answer: The GI50 was 0.65 µM.

Question: And the CC50 (SF-295; [1])?
Answer: Its CC50 is 55.7 µM.

Question: What about the TGI (SF-295) of the same compound?
Answer: Its TGI is 16.2 µM.

Question: And the GI50 (NCI-H522)?
Answer: Its GI50 is 0.02 µM.

Question: What about the CC50 (NCI-H522; [2]) of the same compound?
Answer: Its CC50 is 44.8 µM.

Question: What about the GI50 (SK-OV-3; Homo sapiens) of the same compound?
Answer: Its GI50 is 0.19 µM.

Question: What about the CC50 (SK-OV-3; [1]) of the same compound?
Answer: The CC50 was 34.7 µM.

Question: And the TGI (SK-OV-3)?
Answer: The TGI was 11.6 µM.

Question: What about the GI50 (NCI-H226; Homo sapiens) of the same compound?
Answer: Its GI50 is 3.13 µM.

Question: And the LC50 (50% lethal concentration) (NCI-H226; Homo sapiens)?
Answer: The LC50 (50% lethal concentration) was 45.6 µM.

Question: What about the TGI (NCI-H226) of the same compound?
Answer: The TGI was 13.3 µM.

Question: What about the GI50 (SNB-75; Homo sapiens) of the same compound?
Answer: Its GI50 is 0.03 µM.

Question: And the CC50 (SNB-75; [1])?
Answer: The CC50 was 72 µM.

Question: What about the TGI (SNB-75) of the same compound?
Answer: The TGI was 20.2 µM.

Question: What about the GI50 (TK-10; Homo sapiens) of the same compound?
Answer: Its GI50 is 4.1 µM.

Question: And the LC50 (TK-10; Homo sapiens)?
Answer: Its LC50 is 40.5 µM.

Question: And the TGI (TK-10)?
Answer: Its TGI is 15.7 µM.

Question: What about the GI50 (PC-3; Homo sapiens) of the same compound?
Answer: Its GI50 is 0.42 µM.

Question: And the CC50 (PC-3; [1])?
Answer: Its CC50 is 47.9 µM.

Question: And the TGI (PC-3)?
Answer: Its TGI is 16.1 µM.

Question: And the GI50 (OVCAR-5; Homo sapiens)?
Answer: Its GI50 is 6 µM.

Question: What about the CC50 (OVCAR-5; [1]) of the same compound?
Answer: The CC50 was 55.3 µM.

Question: And the TGI (OVCAR-5)?
Answer: The TGI was 21.4 µM.

Question: What about the TGI (LOX IMVI) of the same compound?
Answer: Its TGI is 16.2 µM.

Question: What about the GI50 (LOX IMVI; Homo sapiens) of the same compound?
Answer: Its GI50 is 0.05 µM.

Question: And the CC50 (LOX IMVI; [1])?
Answer: The CC50 was 58.8 µM.

Question: And the TGI (SN12C)?
Answer: The TGI was 16.9 µM.

Question: And the GI50 (SN12C; Homo sapiens)?
Answer: Its GI50 is 0.99 µM.

Question: And the CC50 (SN12C; [1])?
Answer: The CC50 was 54.2 µM.

Question: And the TGI (A498)?
Answer: The TGI was 8.45 µM.

Question: And the GI50 (A498; Homo sapiens)?
Answer: Its GI50 is 1.84 µM.

Question: And the CC50 (A498; [1])?
Answer: Its CC50 is 32.2 µM.

Question: And the GI50 (K-562; Homo sapiens, K562)?
Answer: Its GI50 is 0.04 µM.

Question: And the CC50 (K-562; Homo sapiens, K562, read-out: LC50 (the source's name))?
Answer: Its CC50 is > 100 µM.

Question: And the TGI (K-562)?
Answer: Its TGI is 11.7 µM.

Question: What about the GI50 (HS 578T) of the same compound?
Answer: The GI50 was 0.02 µM.

Question: And the CC50 (HS 578T; [2])?
Answer: The CC50 was > 100 µM.

Question: What about the GI50 (MOLT-4; Homo sapiens) of the same compound?
Answer: The GI50 was 0.43 µM.

Question: What about the CC50 (MOLT-4; [1]) of the same compound?
Answer: Its CC50 is 80.2 µM.

Question: What about the TGI (MOLT-4) of the same compound?
Answer: The TGI was 12.3 µM.

Question: What about the TGI (HOP-92) of the same compound?
Answer: The TGI was 12.3 µM.

Question: And the GI50 (HOP-92; Homo sapiens)?
Answer: Its GI50 is 0.06 µM.

Question: And the CC50 (HOP-92; [1])?
Answer: The CC50 was 39.6 µM.

Question: And the GI50 (IGROV1; Homo sapiens, IGROV-1)?
Answer: Its GI50 is 2.65 µM.

Question: And the CC50 (IGROV1; Homo sapiens, IGROV-1, read-out: LC50 (the source's name))?
Answer: The CC50 was > 100 µM.

Question: And the TGI (IGROV1)?
Answer: Its TGI is 27.9 µM.

Question: And the GI50 (OVCAR-8; Homo sapiens)?
Answer: The GI50 was 0.08 µM.

Question: What about the CC50 (OVCAR-8; [1]) of the same compound?
Answer: Its CC50 is 50 µM.

Question: What about the TGI (OVCAR-8) of the same compound?
Answer: Its TGI is 11.7 µM.

Question: What about the GI50 (OVCAR-3) of the same compound?
Answer: Its GI50 is 0.26 µM.

Question: What about the CC50 (OVCAR-3; [2]) of the same compound?
Answer: Its CC50 is 37.3 µM.

Question: And the TGI (A549/ATCC)?
Answer: Its TGI is 11.3 µM.

Question: What about the GI50 (A549/ATCC; Homo sapiens) of the same compound?
Answer: Its GI50 is 0.5 µM.

Question: And the CC50 (A549/ATCC; [1])?
Answer: The CC50 was 40.3 µM.

Question: And the GI50 (MDA-MB-435; Homo sapiens)?
Answer: Its GI50 is 0.03 µM.

Question: And the CC50 (MDA-MB-435; [1])?
Answer: Its CC50 is 43 µM.

Question: And the TGI (MDA-MB-435)?
Answer: Its TGI is 13.8 µM.

— US10696615B2, “Prenylated hydroxystilbenes” (The University of Sydney, priority 2011, dated 2020)
